Source: US7645740B2, “Peptide sequence found in Laminin 5 for treating skin impairments” (Laboratoires d'Anjou Centre National de la Recherche …, priority 2004, dated 2010)

Columns and labels:
Format in all cases: cell-based, human
NHK-old [1] = experiment: Cell proliferation test (XTT), NHK-old; conditions: peptide 0.05% and 0.1%, 5th hour
Description: NHK-10 years and NHK-71 years were seeded in 96-well plates at a rate of 10,000 cells per well. After 24 hours, the culture medium was removed and replaced with serum-free medium containing the peptide quantities given in the graphs and reagent XTT. The plates were then placed in the incubator at 37° C. and absorbance readings were taken at 1 h, 2 h, 3 h, 4 h and 5 h. Peptide-free controls were carried out on the same plate.
The effect of the peptide on cell proliferation was analysed with the aid of a calorimetric test (Cell Proliferation Kit XTT, Roche Diagnostics, Meylan, France) on the cells use for the cell adhesion test, i.e. HT1080, A431, HBL100 cells and normal human keratinocytes from young and elderly individuals.
The chemical reaction used in the test is based on the production of NADPH by living cells, leading to the reduction of yellow tetrazolium XTT salts to orange formazan salts. Absorbance was measured at 490 nm using an ELISA plate reader. Cells were seeded in 96-well plates at a rate of 10,000 cells per well (6 wells/condition) in KBM-2 culture medium. After 24 hours in culture at 37° C. with 5% CO2, the culture medium was removed and replaced with serum-free medium containing the peptide quantities given in the graphs and the test reagent. The plates were then placed in the incubator at 37° C. and absorbance readings were taken at 1 h, 2 h, 3 h, 4 h and 5 h. […]

NHKs = experiment: Cell adhesion of NHKs to peptides co-immobilized with laminin 5
Description: Peptides 1, 2 and 3 (variable quantities indicated) and laminin 5 (fixed quantity 0.2 mg) were co-immobilized in 96-well plates. 5×104 NHKs were deposited in each well and plates were incubated at 37° C. for 1 hour. After washing, attached cells were fixed and cell adhesion was measured as described in the methodology section. Cell adhesion in the presence of the peptide is given as a percentage of cell adhesion obtained with laminin 5 alone. Cells were observed by phase contrast microscopy then photographed. Bar=50 μm.
A decreasing range of LN5 (prepared in the laboratory) and COL4 (BD Biosciences, Le Pont de Claix, France) quantities was made up by successive dilution in PBS. These solutions were immediately distributed into a 96-well culture plate (Costar) at a rate of 100 μl per well. The experiment was conducted in exactly the same way as the experiment described in example 2. The results are given in the form of a graph with the absorbance values representing adhesion on the ordinate and the various substrate concentrations on the abscissa. Attached cells were photographed by phase contrast microscopy.
In order to analyse the effect of the peptide on cell adhesion to DEJ proteins, peptide TALRIRATYGEY (SEQ ID NO.1) (peptide 1) was co-immobilized with LN5 (FIG. 14) and COL4 (FIG. 15). The fixed quantity of matrix protein (LN5 and COL4) and the variable quantity of peptide are given on the graph (FIGS. 14 and 15). Peptides 2 and 3 (described in example 1) were used as controls for the experiment. The adhesion tests were carried out with NHK under the same conditions as the experiment given in FIG. 13 (50,000 cells per well). A peptide-free control representing 100% adhesion (LN5 only and COL4 only) was used to allow analysis of the effect of adhesion relating to the presence of the peptide. The results are given as a percentage of this control.

NHK-old [2] = experiment: Cell adhesion of NHK-old to peptide co-immobilized with laminin 5
Description: The peptide (variable quantities indicated) and laminin 5 (fixed quantity 0.2 mg) were co-immobilized in 96-well plates. 3×104 NHK-8 years and 3×104 NHK-63 years were deposited in each well and plates were incubated at 37° C. for 1 hour. After washing, attached cells were fixed and cell adhesion was measured as described in the methodology section. Cell adhesion in the presence of the peptide is given as a percentage of cell adhesion obtained with laminin 5 alone.
The effect of peptide TALRIRATYGEY (SEQ ID NO. 1) on adhesion to LN5 was verified with NHK-old (FIG. 16). NHK-young ([…]) was tested in parallel and 30,000 cells/well were used in both cases (NHK-old is always limiting as it is obtained in lower amounts). In general, the results obtained in the course of this experiment are less marked than those in the experiment presented in FIG. 14 since (1) the number of cells is lower (30,000 instead of 50,000) and (2) the peptide range tested is also smaller. […] This effect, less marked than the effect found with NHK-young, is probably linked to the decreased adhesion with age of NHK-old to peptide TALRIRATYGEY (SEQ ID NO.1) (FIG. 6).

TALRIRATYGEY (Human laminin 5) [Peptide 1]
mean increase in proliferation compared to the control (NHK-old [1]): ≤ 7%
effect on adhesion of NHKs to LN5 (co-immobilized) (NHKs; laminin 5 fixed quantity 0.2 mg, 50,000 cells per well, percentage of LN5 alone): gradual and significant increase
change of adhesion to LN5, on average (NHKs; peptide quantity of 0.21 to 0.87 μg/well, LN5 alone = 100%): doubled
effect on adhesion of NHK-old to LN5 (co-immobilized) (NHK-old [2]; NHK-63 years, 30,000 cells/well, laminin 5 fixed quantity 0.2 mg): potentializing effect
effect on NHK-old adhesion to LN5 compared with NHK-young (NHK-old [2]; NHK-old vs NHK-young, 30,000 cells/well): less marked
